Results taken from US20220288095A1, “SIALIC ACID FOR USE IN THE TREATMENT OF PSORIASIS” (LifeScience AS, priority 2019, published 2022).

System: psoriasis
Assay: Treatment of an adult with psoriasis with NGNA
Assay type: in vivo, human
Conditions: compared to previous treatments
Procedure: Example 2. An adult with psoriasis was treated with 5 mg NGNA per day administered sublingually. Administration caused symptoms associated with the psoriasis including redness, scaling spots, itching, burning and soreness to be reduced as compared to previous treatments.
Example 3. An adult with psoriasis was treated with 5 g NGNA per day administered orally. Administration caused symptoms associated with the psoriasis including redness, scaling spots, itching, burning and soreness to be reduced as compared to previous treatments.
Example 4. An adult with psoriasis was treated with NGNA supplied in a hot water bath.
Example 5. An adult with psoriasis was treated with a dermal spray solution of NGNA in water.

Measured: symptoms associated with the psoriasis including redness, scaling spots, itching, burning and soreness

O=C(CO)N[C@H]1[C@H]([C@H](O)[C@H](O)CO)O[C@](O)(C(=O)O)C[C@@H]1O [NGNA, n-glycolylneuraminic acid]
reduced: 5 mg NGNA per day sublingually | 5 g NGNA per day orally | NGNA supplied in a hot water bath | dermal spray solution of NGNA in water
